Assay results from ChEMBL document CHEMBL1773000, “Synthesis and biological activity of 22-deoxo-23-oxa analogues of saponin OSW-1” (J Med Chem, 2011).
The source made the active and inactive calls. No cut-off for these calls is given here.

What was measured:
[1] = test system: HOS; test: Cytotoxicity against human HOS cells assessed as viable cells after 72 hrs by calcein AM assay; assay type: functional, cell-based
[2] = test system: CCRF-CEM; test: Induction of apoptosis in human CEM cells assessed as accumulation of caspase-3 after 24 hrs by Western blot analysis relative to untreated control; assay type: functional, cell-based
[3] = test system: CCRF-CEM; test: Induction of cell cycle arrest in human CEM cells assessed as increase in accumulation of cells at S-phase after 24 hrs by flow cytometric analysis relative to untreated control; assay type: functional, cell-based
[4] = test system: A549; test: Cytotoxicity against human A549 cells assessed as viable cells after 72 hrs by calcein AM assay; assay type: functional, cell-based; conditions: A549, 72 h
[5] = test system: HCT-116; test: Cytotoxicity against human HCT116 assessed as viable cells after 72 hrs by calcein AM assay; assay type: functional, cell-based; conditions: HCT-116, 72 h
[6] = test system: G-361; test: Cytotoxicity against human G361 cells assessed as viable cells after 72 hrs by calcein AM assay; assay type: functional, cell-based; conditions: G-361, 72 h
[7] = test system: CCRF-CEM; test: Induction of apoptosis in human CEM cells assessed as increase in caspase-3 activity using Ac-DEVD-AMC as a substrate at 5 uM after 24 hrs by fluorescence microplate reader assay relative to untreated control; assay type: functional
[8] = test system: CCRF-CEM; test: Induction of apoptosis in human CEM cells assessed as increase in caspase-7 activity using Ac-DEVD-AMC as a substrate at 5 uM after 24 hrs by fluorescence microplate reader assay relative to untreated control; assay type: functional
[9] = test system: CCRF-CEM; test: Induction of apoptosis in human CEM cells assessed as increase in caspase-3 activity using Ac-DEVD-AMC as a substrate at 2 uM after 24 hrs by fluorescence microplate reader assay relative to untreated control; assay type: functional
[10] = test system: CCRF-CEM; test: Induction of apoptosis in human CEM cells assessed as increase in caspase-7 activity using Ac-DEVD-AMC as a substrate at 1 uM after 24 hrs by fluorescence microplate reader assay relative to untreated control; assay type: functional
[11] = test system: BJ; test: Cytotoxicity against human BJ cells assessed as viable cells after 72 hrs by calcein AM assay; assay type: cell-based
[12] = test system: MCF7; test: Cytotoxicity against human MCF7 cells assessed as viable cells after 72 hrs by calcein AM assay; assay type: functional, cell-based; conditions: MCF7, 72 h
[13] = Cytotoxicity against human T98 cells assessed as viable cells after 72 hrs by calcein AM assay; assay type: functional, cell-based; conditions: T98, 72 h
[14] = test system: CCRF-CEM; test: Cytotoxicity against human CEM cells assessed as viable cells after 72 hrs by calcein AM assay; assay type: functional, cell-based
[15] = test system: CCRF-CEM; test: Induction of apoptosis in human CEM cells assessed as increase in caspase-3 activity using Ac-DEVD-AMC as a substrate at 1 uM after 24 hrs by fluorescence microplate reader assay relative to untreated control; assay type: functional
[16] = test system: CCRF-CEM; test: Induction of apoptosis in human CEM cells assessed as increase in caspase-7 activity using Ac-DEVD-AMC as a substrate at 2 uM after 24 hrs by fluorescence microplate reader assay relative to untreated control; assay type: functional
[17] = test system: HeLa; test: Cytotoxicity against human HeLa cells assessed as viable cells after 72 hrs by calcein AM assay; assay type: functional, cell-based
[18] = test system: CCRF-CEM; test: Induction of apoptosis in human CEM cells assessed as increase in Bcl-2 protein level after 24 hrs by Western blot analysis relative to untreated control; assay type: functional, cell-based
[19] = test system: CCRF-CEM; test: Induction of cell cycle arrest in human CEM cells assessed as increase in accumulation of cells at G2/M-phase after 24 hrs by flow cytometric analysis relative to untreated control; assay type: functional, cell-based
[20] = test system: CCRF-CEM; test: Induction of cell cycle arrest in human CEM cells assessed as reduction in accumulation of cells at G0/G1-phase after 24 hrs by flow cytometric analysis relative to untreated control; assay type: functional, cell-based
[21] = test system: CCRF-CEM; test: Induction of apoptosis in human CEM cells assessed as increase in amount of DNA at subG1-phase after 24 hrs by flow cytometric analysis relative to untreated control; assay type: functional, cell-based
[22] = test system: CCRF-CEM; test: Induction of apoptosis in human CEM cells assessed as cleavage of PARP at 1 to 5 uM after 24 hrs by Western blot analysis relative to untreated control; assay type: functional, cell-based
[23] = test system: CCRF-CEM; test: Induction of apoptosis in human CEM cells assessed as effect on […] protein expression at 1 to 5 uM after 24 hrs by Western blot analysis relative to untreated control; assay type: functional, cell-based
[24] = test system: CCRF-CEM; test: Induction of apoptosis in human CEM cells assessed as effect on retinoblastoma protein expression at 1 to 5 uM after 24 hrs by Western blot analysis relative to untreated control; assay type: functional, cell-based

With `COc1ccc(C(=O)OC[C@@H](C)[C@@]2(O)[C@@H](O[C@@H]3OC[C@H](O)[C@H](O[C@@H]4OC[C@@H](O)[C@H](O)[C@H]4OC(=O)c4ccc(OC)cc4)[C@H]3OC(C)=O)C[C@H]3[C@@H]4CC=C5C[C@@H](O)CC[C@]5(C)[C@H]4CC[C@@]32C)cc1` the IC50 [1] was 5400 nM, the Activity [2] was “Dose-dependent effect” and the Activity [3] was “Dose-dependent effect”. It also gave an IC50 [4] of 570 nM, an IC50 [5] of 5000 nM and an IC50 [6] of 170 nM. For the same compound, the “fold change (FC)” value [7] was 1.8, the “fold change (FC)” value [8] was 1.8 and the “fold change (FC)” value [9] was 1.7. The “fold change (FC)” value [10] was 2.1, the IC50 [11] was 39 nM and the IC50 [12] was 410 nM. The IC50 [13] was 55 nM, the IC50 [14] was 57 nM and the “fold change (FC)” value [15] was 2.1. For the same compound, the “fold change (FC)” value [16] was 1.7, the IC50 [17] was 340 nM and the Activity [18] was “Dose-dependent effect”. The Activity [19] was “Dose-dependent effect”, the Activity [20] was “Dose-dependent effect” and the Activity [21] was “Active”. For the same compound, the Activity [22] was “Active”, the Activity [23] was “inactive” and the Activity [24] was “inactive”.
